Measurements from ChEMBL document CHEMBL5614424, “Natural Product-Inspired Discovery of Naphthoquinone-Furo-Piperidine Derivatives as Novel STAT3 Inhibitors for the Treatment of Triple-Negative Breast Cancer” (J Med Chem, 2024).
Calls of active or inactive are those of the source. No cut-off for these calls is given here.

Key:
[1] = AUC(0 to infinity) in male rat at 10 mg/kg, ip measured upto 24 hrs by LC/MS/MS analysis; format: ADME, organism-based; settings: in vivo
[2] = Half life in male rat at 5 mg/kg, iv measured upto 24 hrs by LC/MS/MS analysis; format: ADME, organism-based; settings: in vivo
[3] = Half life in male rat at 10 mg/kg, ip measured upto 24 hrs by LC/MS/MS analysis; format: ADME, organism-based; settings: in vivo
[4] = Cmax in male rat at 10 mg/kg, ip measured upto 24 hrs by LC/MS/MS analysis; format: ADME, organism-based; settings: in vivo
[5] = Half life in male rat at 10 mg/kg, po measured upto 24 hrs by LC/MS/MS analysis; format: ADME, organism-based; settings: in vivo
[6] = Tmax in male rat at 10 mg/kg, ip measured upto 24 hrs by LC/MS/MS analysis; format: ADME, organism-based; settings: in vivo
[7] = Tmax in male rat at 10 mg/kg, po measured upto 24 hrs by LC/MS/MS analysis; format: ADME, organism-based; settings: in vivo
[8] = AUC(0 to t) in male rat at 5 mg/kg, iv measured upto 24 hrs by LC/MS/MS analysis; format: ADME, organism-based; settings: in vivo
[9] = AUC(0 to t) in male rat at 10 mg/kg, po measured upto 24 hrs by LC/MS/MS analysis; format: ADME, organism-based; settings: in vivo
[10] = Cmax in male rat at 5 mg/kg, iv measured upto 24 hrs by LC/MS/MS analysis; format: ADME, organism-based; settings: in vivo
[11] = AUC(0 to infinity) in male rat at 10 mg/kg, po measured upto 24 hrs by LC/MS/MS analysis; format: ADME, organism-based; settings: in vivo
[12] = Cmax in male rat at 10 mg/kg, po measured upto 24 hrs by LC/MS/MS analysis; format: ADME, organism-based; settings: in vivo
[13] = AUC(0 to infinity) in male rat at 5 mg/kg, iv measured upto 24 hrs by LC/MS/MS analysis; format: ADME, organism-based; settings: in vivo
[14] = AUC(0 to t) in male rat at 10 mg/kg, ip measured upto 24 hrs by LC/MS/MS analysis; format: ADME, organism-based; settings: in vivo
[15] = Oral bioavailability in male rat at 10 mg/kg measured upto 24 hrs by LC/MS/MS analysis; format: ADME, organism-based; settings: in vivo
[16] = Tmax in male rat at 5 mg/kg, iv measured upto 24 hrs by LC/MS/MS analysis; format: ADME, organism-based; settings: in vivo
MDA-MB-231 [17] = experiment: In vivo antitumor activity against human MDA-MB-231 cells xenografted in Female BALB/c-nude assessed as increase in TUNEL positive cells in tumor tissue at 15 to 30 mg/kg, ip once daily for 21 consecutive days by TUNEL cell apoptosis assay; format: functional, organism-based; settings: dose 15-30 mg/kg, time 21.0 day
MDA-MB-468 [18] = experiment: Decrease in STAT5 expression level in human MDA-MB-468 cell nucleus at 1.25 to 5 uM measured after 24 hrs by Western blot analysis; format: functional, cell-based; settings: dose 1.25-5 µM
MDA-MB-231 [19] = experiment: Anti-invasion ability in human MDA-MB-231 cells assessed as reduction in cell invasion and migration ability rate incubated for 24 hrs by Boyden chamber transwell assay; format: functional, cell-based; settings: dose 1.25-5 µM
MDA-MB-231 [20] = experiment: Induction of apoptosis in human MDA-MB-231 cells assessed as up-regulation of cleaved Bax at 2.5 to 5 uM measured after 24 hrs by Western blotting analysis; format: functional, cell-based; settings: dose 2.5-5 µM
MDA-MB-231 [21] = experiment: In vivo antitumor activity against human MDA-MB-231 cells xenografted in Female BALB/c-nude assessed as down-regulation of p-STAT3 expression in tumor tissue at 15 to 30 mg/kg, ip once daily for 21 consecutive days by […]; format: functional, organism-based; settings: dose 15-30 mg/kg, time 21.0 day
MDA-MB-468 [22] = experiment: Induction of apoptosis in human MDA-MB-468 cells assessed as down-regulation of cleaved Bcl-2 at 2.5 to 5 uM measured after 24 hrs by Western blotting analysis; format: functional, cell-based; settings: dose 2.5-5 µM
[23] = molecular target: T1, Signal transducer and activator of transcription 1-alpha/beta (Homo sapiens) (UniProt P42224); experiment: Inhibition of STAT1 activation in human MDA-MB-231 cell assessed as decrease in phosphorylated STAT1 (Tyr701) level at 1.25 to 5 uM measured after 24 hrs by Western blot analysis; format: cell-based; settings: dose 1.25-5 µM
T1 sequence (whole entry): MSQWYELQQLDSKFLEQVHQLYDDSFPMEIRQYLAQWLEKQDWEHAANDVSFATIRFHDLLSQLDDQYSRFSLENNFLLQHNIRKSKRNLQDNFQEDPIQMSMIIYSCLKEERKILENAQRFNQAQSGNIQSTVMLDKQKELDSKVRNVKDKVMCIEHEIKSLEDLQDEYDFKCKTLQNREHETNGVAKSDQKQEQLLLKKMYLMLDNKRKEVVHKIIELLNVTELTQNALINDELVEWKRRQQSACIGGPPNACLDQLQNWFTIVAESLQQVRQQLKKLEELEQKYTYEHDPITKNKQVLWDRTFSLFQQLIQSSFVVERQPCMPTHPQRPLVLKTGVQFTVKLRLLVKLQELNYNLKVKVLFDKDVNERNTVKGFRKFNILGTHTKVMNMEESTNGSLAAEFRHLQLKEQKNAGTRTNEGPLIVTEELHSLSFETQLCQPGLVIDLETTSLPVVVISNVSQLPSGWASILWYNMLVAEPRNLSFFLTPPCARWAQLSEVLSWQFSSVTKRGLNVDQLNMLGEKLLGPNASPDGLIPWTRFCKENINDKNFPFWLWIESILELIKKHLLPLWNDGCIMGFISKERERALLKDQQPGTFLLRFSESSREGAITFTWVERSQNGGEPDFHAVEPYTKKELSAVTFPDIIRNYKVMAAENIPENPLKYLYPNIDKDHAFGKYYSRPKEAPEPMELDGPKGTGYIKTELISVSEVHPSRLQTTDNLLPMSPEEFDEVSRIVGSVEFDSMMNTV

MDA-MB-231 [24] = experiment: Decrease in STAT5 expression level in human MDA-MB-231 cell cytoplasm at 1.25 to 5 uM measured after 24 hrs by Western blot analysis; format: functional, cell-based; settings: dose 1.25-5 µM
MDA-MB-231 [25] = experiment: Decrease in STAT5 expression level in human MDA-MB-231 cell nucleus at 1.25 to 5 uM measured after 24 hrs by Western blot analysis; format: functional, cell-based; settings: dose 1.25-5 µM
MDA-MB-468 [26] = experiment: Decrease in STAT5 expression level in human MDA-MB-468 cell cytoplasm at 1.25 to 5 uM measured after 24 hrs by Western blot analysis; format: functional, cell-based; settings: dose 1.25-5 µM
MDA-MB-468 [27] = experiment: Induction of apoptosis in human MDA-MB-468 cells assessed as […] at 2.5 to 5 uM measured after 24 hrs by Western blotting analysis; format: functional, cell-based; settings: dose 2.5-5 µM
MDA-MB-468 [28] = experiment: Induction of apoptosis in human MDA-MB-468 cells assessed as up-regulation of cleaved caspase 9 at 2.5 to 5 uM measured after 24 hrs by Western blotting analysis; format: functional, cell-based; settings: dose 2.5-5 µM
MDA-MB-231 [29] = experiment: Inhibition of colony formation in human MDA-MB-231 cells assessed as reduction in colony number and size at 1.25 to 5 uM by plate colony formation assay; format: functional, cell-based; settings: dose 1.25-5 µM
MDA-MB-231 [30] = experiment: Induction of apoptosis in human MDA-MB-231 cells assessed as down-regulation of cleaved Bcl-2 at 2.5 to 5 uM measured after 24 hrs by Western blotting analysis; format: functional, cell-based; settings: dose 2.5-5 µM
MDA-MB-231 [31] = experiment: Induction of apoptosis in human MDA-MB-231 cells assessed as up-regulation of cleaved caspase 3 at 2.5 to 5 uM measured after 24 hrs by Western blotting analysis; format: functional, cell-based; settings: dose 2.5-5 µM
[32] = molecular target: T2, Signal transducer and activator of transcription 5A (Homo sapiens) (UniProt P42229); experiment: Inhibition of STAT5 activation in human MDA-MB-231 cell assessed as decrease in […] level at 1.25 to 5 uM measured after 24 hrs by Western blot analysis; format: cell-based; settings: dose 1.25-5 µM
T2 sequence (whole entry): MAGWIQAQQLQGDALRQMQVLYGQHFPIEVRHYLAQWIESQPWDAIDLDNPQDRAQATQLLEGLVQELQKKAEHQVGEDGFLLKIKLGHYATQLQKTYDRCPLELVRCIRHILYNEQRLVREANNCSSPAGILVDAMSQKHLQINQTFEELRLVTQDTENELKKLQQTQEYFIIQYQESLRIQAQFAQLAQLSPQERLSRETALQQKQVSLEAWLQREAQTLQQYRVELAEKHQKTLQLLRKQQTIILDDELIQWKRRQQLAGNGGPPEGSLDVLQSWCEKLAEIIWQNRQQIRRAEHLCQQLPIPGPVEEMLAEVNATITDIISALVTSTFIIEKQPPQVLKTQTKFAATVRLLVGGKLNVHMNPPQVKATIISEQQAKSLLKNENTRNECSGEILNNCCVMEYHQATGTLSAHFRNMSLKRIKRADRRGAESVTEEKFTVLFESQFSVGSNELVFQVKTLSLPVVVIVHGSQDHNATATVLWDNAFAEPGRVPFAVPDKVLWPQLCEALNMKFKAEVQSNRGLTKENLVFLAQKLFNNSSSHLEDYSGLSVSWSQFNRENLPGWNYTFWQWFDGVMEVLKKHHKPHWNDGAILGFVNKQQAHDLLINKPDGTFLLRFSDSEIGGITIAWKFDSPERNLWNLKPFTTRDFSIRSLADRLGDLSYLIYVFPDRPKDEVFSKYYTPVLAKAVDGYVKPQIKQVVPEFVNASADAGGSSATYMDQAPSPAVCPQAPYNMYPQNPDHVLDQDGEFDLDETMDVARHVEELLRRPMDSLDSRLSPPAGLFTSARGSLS

MDA-MB-468 [33] = experiment: Induction of apoptosis in human MDA-MB-468 cells assessed as up-regulation of cleaved caspase 3 at 2.5 to 5 uM measured after 24 hrs by Western blotting analysis; format: functional, cell-based; settings: dose 2.5-5 µM
MDA-MB-231 [34] = experiment: In vivo antitumor activity against human MDA-MB-231 cells xenografted in Female BALB/c-nude assessed as up-regulation of C-Caspase 3 expression in tumor tissue at 15 to 30 mg/kg, ip once daily for 21 consecutive days by […]; format: functional, organism-based; settings: dose 15-30 mg/kg, time 21.0 day
MDA-MB-468 [35] = experiment: Induction of apoptosis in human MDA-MB-468 cells assessed as up-regulation of cleaved Bax at 2.5 to 5 uM measured after 24 hrs by Western blotting analysis; format: functional, cell-based; settings: dose 2.5-5 µM
MDA-MB-231 [36] = experiment: Inhibition of cell migration in human MDA-MB-231 cells assessed as decrease in wound closure rate at 5 uM incubated for 6 to 24 hrs by wound healing assay; format: functional, cell-based; settings: time 6-24 hrs
MDA-MB-231 [37] = experiment: Induction of apoptosis in human MDA-MB-231 cells assessed as down-regulation of cleaved […] at 2.5 to 5 uM measured after 24 hrs by Western blotting analysis; format: functional, cell-based; settings: dose 2.5-5 µM
MDA-MB-231 [38] = experiment: Induction of apoptosis in human MDA-MB-231 cells assessed as up-regulation of cleaved caspase 9 at 2.5 to 5 uM measured after 24 hrs by Western blotting analysis; format: functional, cell-based; settings: dose 2.5-5 µM

CC(C)C[C@@H](CO)N1CCc2c(oc3c2C(=O)C(=O)c2ccccc2-3)C1.Cl
AUC(0-inf) [1]: 523 ng·h/mL
half-life [2]: 17.2 h
half-life [3]: 17.2 h
Cmax [4]: 272 ng/mL
half-life [5]: 6.5 h
Tmax [6]: 6 min
Tmax [7]: 0.4 h
AUC(0-t) at 24 h [8]: 490 ng·h/mL
AUC(0-t) at 24 h [9]: 107 ng·h/mL
Cmax [10]: 972 ng/mL
AUC(0-inf) [11]: 106 ng·h/mL
Cmax [12]: 78.4 ng/mL
AUC(0-inf) [13]: 493 ng·h/mL
AUC(0-t) at 24 h [14]: 571 ng·h/mL
bioavailability [15]: 10.9%
Tmax [16]: 4.8 min

CC(C)C[C@@H](CO)N1CCc2c(oc3c2C(=O)C(=O)c2ccccc2-3)C1
Activity (MDA-MB-231 [17]): Active
Activity (MDA-MB-468 [18]): Active
Activity (MDA-MB-231 [19]): Dose-Dependent Effect
Activity (MDA-MB-231 [20]): Active
Activity (MDA-MB-231 [21]): Active
Activity (MDA-MB-468 [22]): Active
inhibition [23]: inactive
Activity (MDA-MB-231 [24]): inactive
Activity (MDA-MB-231 [25]): Active
Activity (MDA-MB-468 [26]): inactive
Activity (MDA-MB-468 [27]): Active
Activity (MDA-MB-468 [28]): Active
inhibition (MDA-MB-231 [29]): Active
Activity (MDA-MB-231 [30]): Active
Activity (MDA-MB-231 [31]): Active
inhibition [32]: inactive
Activity (MDA-MB-468 [33]): Active
Activity (MDA-MB-231 [34]): Active
Activity (MDA-MB-468 [35]): Active
inhibition (MDA-MB-231 [36]): Active
Activity (MDA-MB-231 [37]): Active
Activity (MDA-MB-231 [38]): Active
